Results on 2 substances are retold here after US8802135B2, “Delivery system for remote treatment of an animal” (SmartVet Pty Ltd., priority 2006, dated 2014).

One data set concerns wireworm. Nature of the data set: efficacy trial against endo-parasite wireworm. The class given is in vivo, cattle. The settings on record: ~200 kg cow, slaughtered 3 weeks after treatment. Here is the method:
The purpose of the trial was to establish the efficacy of biologically active agent when administered by the system according to the present invention in treating cattle for the endo-parasite wireworm.
Two cattle of similar age and weight (˜200 kg) were infected with wireworm parasite to the level of 6000 to 8000 worm eggs per gram of faeces. One cow was treated with the biologically active agent in its ‘pour on’ form and the other cattle were treated with two dosage projectiles fired from a distance of approx 20 meters with a CO2 propelled launcher with an impact velocity of about 130 ft/sec.
Each projectile was spherical and made from soft gelatine compound with the shell being of about 2 mm thick. The size was sufficient to hold about 10 ml of the liquid biologically active agent comprising the following constituent:
10 mg of abamectin (at a dosage concentration of 1 mg per 10 kg of body mass)
5% solution of the solvent/transdermal carrier propylene glycol (the proprietary brand Icinol)
a standard turquoise, inert pharmaceutical colorant known as FC & D blue
The impact area of the ruptured projectiles was the hind quarter and lower neck/shoulder of the cattle.
The cattle were slaughtered 3 weeks after treatment and the stomach contents/linings examined under laboratory conditions.

Data set [1] can be described thus: drug trials: absorption of abamectin from projectile vs Pour On. The class given is in vivo. The settings on record: applied in a projectile at 5 g/l. The text has this:
The system has been adapted for use in Africa for treating antelope species. Each projectile was designed to treat a 100 kg animal.

The conditions of data set [2]: primate skin types in contact with pure ivermectin; cited from earlier work.

Turning to abamectin, the free of parasite result with wireworm ('pour on' form) is “approx 96%”. Moreover, the “free of internal parasite infection” value in the data set with wireworm (two dosage projectiles) was found to be 100%. Also, the “absorption of the active compared with traditional Pour On application” value in data set [1] (antelope species) and in data set [1] (cattle) was “at least as good as” throughout.
Consider ivermectin [pure ivermectin], for which the “active agent absorbed into the bloodstream” value in data set [2] was “less than 1%”.
